Test results from patent US20250332198A1, “TARGETED ELIMINATION OF SENESCENT CELLS BY GAMMA-DELTA T CELLS” (SENS RESEARCH FOUNDATION, priority 2022, published 2025).

How the values were obtained:
platelet = settings: risk of causing thrombocytopenia; cited from earlier work
macrophages = settings: as reported; cited from earlier work
[1] = molecular target: T1, 3-hydroxy-3-methylglutaryl-CoA reductase (HMGCR) (Homo sapiens, UniProt P04035); assay: Mevalonate pathway inhibition in SC, effect on cytotoxicity by Vδ2 T cells; format: cell-based; settings: SC treated with the HMGCR inhibitor
T1 construct: endogenous in cells; host or cells: senescent cells (SC)
T1 sequence (P04035 1-888): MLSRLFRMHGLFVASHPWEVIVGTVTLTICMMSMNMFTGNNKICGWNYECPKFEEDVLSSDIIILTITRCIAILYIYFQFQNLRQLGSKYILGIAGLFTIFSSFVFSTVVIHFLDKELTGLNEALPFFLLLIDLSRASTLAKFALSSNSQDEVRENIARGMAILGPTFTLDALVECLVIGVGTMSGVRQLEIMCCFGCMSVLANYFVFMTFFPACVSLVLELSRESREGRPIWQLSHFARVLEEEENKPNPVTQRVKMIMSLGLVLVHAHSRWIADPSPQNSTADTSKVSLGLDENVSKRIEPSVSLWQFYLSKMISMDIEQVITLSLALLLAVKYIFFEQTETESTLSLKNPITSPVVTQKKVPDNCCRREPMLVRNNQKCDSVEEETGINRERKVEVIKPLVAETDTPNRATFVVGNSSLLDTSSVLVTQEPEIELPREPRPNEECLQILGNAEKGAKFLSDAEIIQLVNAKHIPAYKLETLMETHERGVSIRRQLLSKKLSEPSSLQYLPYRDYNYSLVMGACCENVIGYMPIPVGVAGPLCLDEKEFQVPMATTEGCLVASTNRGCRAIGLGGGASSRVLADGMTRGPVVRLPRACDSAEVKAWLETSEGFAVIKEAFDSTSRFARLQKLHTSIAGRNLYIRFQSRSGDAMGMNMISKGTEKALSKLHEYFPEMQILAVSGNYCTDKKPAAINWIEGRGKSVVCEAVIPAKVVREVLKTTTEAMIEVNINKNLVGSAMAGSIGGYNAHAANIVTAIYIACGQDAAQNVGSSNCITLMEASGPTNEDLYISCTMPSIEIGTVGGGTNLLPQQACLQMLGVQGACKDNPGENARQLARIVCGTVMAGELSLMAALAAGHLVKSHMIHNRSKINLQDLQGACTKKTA
Excerpt: NKG2D recognizes target cells based on their surface expression of ligands such as MICA. […] Briefly, phosphoantigens such as IPP (an intermediate metabolite of mevalonate pathway) bind to the intracellular domain of BTN3A, leading to a conformational change in the extracellular domain that is recognized by γδTCR. […] To determine the role of mevalonate pathway, we inhibited the rate-limiting enzyme 3-hydroxy-3-methylglutaryl-CoA reductase (HMGCR) with mevastain in SC and tested the effect on cytotoxicity by Vδ2 T cells.

SMILES	platelet toxicity (platelet)	effect on macrophages (macrophages)	effect on Vδ2 T cell-mediated cytotoxicity toward SC [1]	effect on Vδ2 T cell-mediated cytotoxicity toward SC ([1]; listed as mevastain)
CC1(C)CCC(c2ccc(Cl)cc2)=C(CN2CCN(c3ccc(C(=O)NS(=O)(=O)c4ccc(N[C@H](CCN5CCOCC5)CSc5ccccc5)c(S(=O)(=O)C(F)(F)F)c4)cc3)CC2)C1 [ABT263, navitoclax]	dose-limiting platelet toxicity	destroy macrophages	–	–
O=c1c(O)c(-c2ccc(O)c(O)c2)oc2cc(O)ccc12 [fisetin]	–	destroy macrophages	–	–
CC[C@H](C)C(=O)O[C@H]1CCC=C2C=C[C@H](C)[C@H](CC[C@@H]3C[C@@H](O)CC(=O)O3)[C@H]21 [mevastatin]	–	–	resistant to gamma delta T cells	significantly reduced Vδ2 T cell-mediated cytotoxicity
